Measured values from ChEMBL document CHEMBL1201862, “PubChem BioAssay data set” (2004).
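The compound was tested at five concentrations on cells cultured in 96-well plates, with a 48-hour exposure period. GI50: concentration for 50% inhibition of growth.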 Active and inactive are the calls of the source. No stated cut-off is given here; in the data, active = GI50 up to about 1.1 µM and inactive = higher.

Assays:
Test in all cases: NCI tumour cell line growth inhibition, 48 h
SK-MEL-5 = test system: SK-MEL-5
OVCAR-4 = test system: OVCAR-4
MOLT-4 = test system: MOLT-4
Malme-3M = test system: Malme-3M
KM12 = test system: KM12
U-251 = test system: U-251
SNB-19 = test system: SNB-19
XF498 = test system: XF498
NCI-H522 = test system: NCI-H522
SF-295 = test system: SF-295
HL-60 = test system: HL-60
DMS-114 = test system: DMS-114
RPMI-8226 = test system: RPMI-8226
SF-268 = test system: SF-268
DU-145 = test system: DU-145
PC-3 = test system: PC-3
MDA-MB-231 = test system: MDA-MB-231
TK-10 = test system: TK-10
DMS-273 = test system: DMS-273
LXFL 529 = test system: LXFL 529

COc1cc(C2c3cc4c(cc3[C@@H](Nc3ccc(Oc5ccccc5)cc3)C3COC(=O)[C@H]23)OCO4)cc(OC)c1O (stereo partly drawn)
GI50 (SK-MEL-5): 1.58 µM (inactive)
GI50 (OVCAR-4): 7.11 µM (inactive)
GI50 (MOLT-4): 0.329 µM (active)
GI50 (Malme-3M): 3.7 µM (inactive)
GI50 (KM12): 4.57 µM (inactive)
GI50 (U-251): 2.36 µM (inactive)
GI50 (SNB-19): 3.27 µM (inactive)
GI50 (XF498): 5.26 µM (inactive)
GI50 (NCI-H522): 2.25 µM (inactive)
GI50 (SF-295): 1.27 µM (inactive)
GI50 (HL-60): 0.362 µM (active)
GI50 (DMS-114): 0.597 µM (active)
GI50 (RPMI-8226): 1.08 µM (active)
GI50 (SF-268): 2.52 µM (inactive)

CCOC(=O)C1=NN(c2ccc(C)cc2)C2=CC(C)=NN(C)C(=S)N21
GI50 (SK-MEL-5): > 100 µM (inactive)
GI50 (DU-145): > 100 µM (inactive)
GI50 (OVCAR-4): > 100 µM (inactive)
GI50 (MOLT-4): > 100 µM (inactive)
GI50 (KM12): > 100 µM (inactive)
GI50 (U-251): 38.5 µM (inactive)
GI50 (SNB-19): > 100 µM (inactive)
GI50 (NCI-H522): 12.2 µM (inactive)
GI50 (SF-295): > 100 µM (inactive)
GI50 (PC-3): > 100 µM (inactive)
GI50 (HL-60): > 100 µM (inactive)
GI50 (MDA-MB-231): 82.4 µM (inactive)
GI50 (TK-10): 36.1 µM (inactive)
GI50 (RPMI-8226): > 100 µM (inactive)
GI50 (SF-268): 85.5 µM (inactive)

COc1cc(/N=N\c2cccc(S(=O)(=O)O)c2)ccc1/N=N\c1ccc(/C=C/c2ccc(-n3on3-c3ccc(/C=C/c4ccc(/N=N/c5ccc(/N=N\c6cccc(S(=O)(=O)O)c6)cc5OC)cc4S(=O)(=O)O)c(S(=O)(=O)O)c3)cc2S(=O)(=O)O)c(S(=O)(=O)O)c1
GI50 (SK-MEL-5): > 100 µM (inactive)
GI50 (DMS-273): > 69.5 µM (inactive)
GI50 (OVCAR-4): > 100 µM (inactive)
GI50 (MOLT-4): > 100 µM (inactive)
GI50 (Malme-3M): > 100 µM (inactive)
GI50 (KM12): > 100 µM (inactive)
GI50 (U-251): > 100 µM (inactive)
GI50 (SNB-19): > 100 µM (inactive)
GI50 (XF498): > 83 µM (inactive)
GI50 (NCI-H522): > 100 µM (inactive)
GI50 (SF-295): > 100 µM (inactive)
GI50 (HL-60): > 80 µM (inactive)
GI50 (DMS-114): > 100 µM (inactive)
GI50 (RPMI-8226): > 100 µM (inactive)
GI50 (SF-268): > 100 µM (inactive)

CNC(=O)OCC1=C(COC(=O)NC)CN(c2ccc(OC)cc2)C1
GI50 (SK-MEL-5): > 100 µM (inactive)
GI50 (DU-145): > 100 µM (inactive)
GI50 (OVCAR-4): > 100 µM (inactive)
GI50 (MOLT-4): > 100 µM (inactive)
GI50 (Malme-3M): > 100 µM (inactive)
GI50 (KM12): > 100 µM (inactive)
GI50 (U-251): > 100 µM (inactive)
GI50 (SNB-19): > 100 µM (inactive)
GI50 (SF-295): > 100 µM (inactive)
GI50 (PC-3): > 100 µM (inactive)
GI50 (HL-60): > 100 µM (inactive)
GI50 (MDA-MB-231): > 100 µM (inactive)
GI50 (TK-10): 85.7 µM (inactive)
GI50 (RPMI-8226): > 100 µM (inactive)
GI50 (SF-268): > 100 µM (inactive)

CCOC(=O)C(O)(NC(=O)c1ccccc1F)C(F)(F)F (stereo not drawn)
GI50 (SK-MEL-5): > 100 µM (inactive)
GI50 (DU-145): > 100 µM (inactive)
GI50 (OVCAR-4): > 100 µM (inactive)
GI50 (MOLT-4): > 100 µM (inactive)
GI50 (Malme-3M): > 100 µM (inactive)
GI50 (KM12): > 100 µM (inactive)
GI50 (U-251): > 100 µM (inactive)
GI50 (SNB-19): > 100 µM (inactive)
GI50 (NCI-H522): > 100 µM (inactive)
GI50 (SF-295): > 100 µM (inactive)
GI50 (PC-3): > 100 µM (inactive)
GI50 (HL-60): > 100 µM (inactive)
GI50 (MDA-MB-231): 2.69 µM (inactive)
GI50 (TK-10): > 100 µM (inactive)
GI50 (RPMI-8226): > 100 µM (inactive)
GI50 (SF-268): > 100 µM (inactive)

O=C(Nc1ccc2[nH]c3c(-c4ccccc4)nccc3c2c1)c1ccccc1[N+](=O)[O-]
GI50 (DMS-273): 1.76 µM (inactive)
GI50 (OVCAR-4): 36.9 µM (inactive)
GI50 (MOLT-4): 2.22 µM (inactive)
GI50 (Malme-3M): 1.82 µM (inactive)
GI50 (KM12): 3.97 µM (inactive)
GI50 (U-251): 2.96 µM (inactive)
GI50 (SNB-19): 5.58 µM (inactive)
GI50 (XF498): 3.59 µM (inactive)
GI50 (SF-295): 1.64 µM (inactive)
GI50 (HL-60): 3.48 µM (inactive)
GI50 (DMS-114): 3.74 µM (inactive)
GI50 (TK-10): 4.18 µM (inactive)
GI50 (LXFL 529): 6.52 µM (inactive)
GI50 (RPMI-8226): 1.61 µM (inactive)
GI50 (SF-268): 3.52 µM (inactive)

CCOC(=O)Cc1cnc(NC(NC(=O)CC)(C(F)(F)F)C(F)(F)F)s1
GI50 (DU-145): > 100 µM (inactive)
GI50 (MOLT-4): > 100 µM (inactive)
GI50 (Malme-3M): > 100 µM (inactive)
GI50 (KM12): > 100 µM (inactive)
GI50 (U-251): > 100 µM (inactive)
GI50 (SNB-19): > 100 µM (inactive)
GI50 (NCI-H522): > 100 µM (inactive)
GI50 (HL-60): > 100 µM (inactive)
GI50 (MDA-MB-231): > 100 µM (inactive)
GI50 (TK-10): > 100 µM (inactive)
GI50 (RPMI-8226): > 100 µM (inactive)
GI50 (SF-268): > 100 µM (inactive)

N/C(=N\O)N/N=C\c1ccc(O)c(O)c1O
GI50 (SK-MEL-5): 19.8 µM (inactive)
GI50 (DMS-273): 13.6 µM (inactive)
GI50 (OVCAR-4): 10.9 µM (inactive)
GI50 (MOLT-4): 24.9 µM (inactive)
GI50 (Malme-3M): > 100 µM (inactive)
GI50 (KM12): 26.7 µM (inactive)
GI50 (U-251): > 52.8 µM (inactive)
GI50 (SNB-19): > 51.9 µM (inactive)
GI50 (XF498): > 100 µM (inactive)
GI50 (NCI-H522): 24.1 µM (inactive)
GI50 (SF-295): 12.2 µM (inactive)
GI50 (HL-60): 17.2 µM (inactive)
GI50 (DMS-114): 21.2 µM (inactive)
GI50 (RPMI-8226): 41.5 µM (inactive)
GI50 (SF-268): 60.1 µM (inactive)

CC1(C)N=C(c2ccccc2)SC12S[C@@H]1CCCC[C@H]1S2
GI50 (SK-MEL-5): 17.4 µM (inactive)
GI50 (DU-145): > 100 µM (inactive)
GI50 (OVCAR-4): > 100 µM (inactive)
GI50 (MOLT-4): 63.8 µM (inactive)
GI50 (Malme-3M): 56.2 µM (inactive)
GI50 (KM12): > 100 µM (inactive)
GI50 (U-251): > 100 µM (inactive)
GI50 (SNB-19): 13.2 µM (inactive)
GI50 (NCI-H522): > 100 µM (inactive)
GI50 (SF-295): > 100 µM (inactive)
GI50 (PC-3): > 100 µM (inactive)
GI50 (HL-60): > 100 µM (inactive)
GI50 (MDA-MB-231): > 100 µM (inactive)
GI50 (TK-10): > 100 µM (inactive)
GI50 (RPMI-8226): 32.2 µM (inactive)
GI50 (SF-268): > 100 µM (inactive)
